Test results taken from patent publication US11433055B2, “Chromane monobactam compounds for the treatment of bacterial infections” (priority 2017, dated 2022).
Counter-ions that a name gives are not always drawn.

How the values were obtained:
Assay type in all cases: cell-based
Details in all cases: lowest concentration inhibiting 95% of bacterial growth; in the presence of β lactamase inhibitor (BLi, Relebactam); 22 hours, 35±2° C., OD600
[1] = system: Acinetobacter baumannii expressing TEM-1, AmpC, and Oxa-24/40 (CL6188)
Method: (§1) Antibiotic Activity: Determination of Growth Inhibitory Concentration
(§2) The concentrations of compounds required to inhibit the growth of various strains of bacteria were determined in an assay that assessed bacterial growth by measuring optical density at 600 nm (OD600). The bacterial strains tested included the clinical strains Escherichia coli expressing NDM-1 (CLB30016), Klebsiella pneumoniae expressing KPC-1 (CL6569), Acinetobacter baumannii expressing TEM-1, AmpC, and Oxa-24/40 (CL6188) and Pseudomonas aeruginosa expressing AmpC (CL5701). All compounds were tested in the presence of a β lactamase inhibitor (BLi, Relebactam) in 384-well microplates. The clinical strains were stored as frozen single use stocks, thawed and diluted into 1.1× cation-adjusted Mueller-Hinton II broth to achieve approximately 2×10^5 CFU/mL. Test compounds were dissolved in DMSO and diluted 1:50 in the assay, resulting in a final concentration range of 100 μM to 0.098 μM. On the day of the assay, 1 μL of test compound was added to the plate followed by 4 μL of 50 μg/mL BLi in MOPS buffer and 45 μL of diluted bacteria. Plates were centrifuged at 1000 rpm for 30 seconds, shaken at approximately 800 rpm for 1 minute, and incubated at 35±2° C. for 22 hours. The concentration of BLi used in the assay was […]. At the end of the incubation, absorbance at 600 nm was determined using a spectrophotometer. Inhibition was quantitated by identifying the lowest concentration of test compound that was required to inhibit 95% of the growth of the bacteria. The results for Examples 1-39 are reported in Table I, expressed as the concentration of compound that inhibited 95% of bacterial growth (Minimum Inhibitory Threshold Concentration; MITC95).

[2] = system: Escherichia coli expressing NDM-1 (CLB30016)
Method: as §1, §2

[3] = system: Klebsiella pneumoniae expressing KPC-1 (CL6569)
Method: as §1, §2

[4] = system: Pseudomonas aeruginosa expressing AmpC (CL5701)
Method: as §1, §2

Row | SMILES | AB_CL6188 MITC95 [1] | EC_CLB30016 MITC95 [2] | KP_CL6569 MITC95 [3] | PA_CL5701 MITC95 [4]
1 | CC1(C)[C@H](NC(=O)/C(=N\O[C@](C)(C(=O)O)C2CCc3cc(-c4cn(C[C@@H](O)CN)[n+](CCCN)c4)ccc3O2)c2csc(N)n2)C(=O)N1OS(=O)(=O)[O-] (mixture of isomers) [Example 5, (3 S)-3-((Z)-2-(((1 S)-1-(6-(1-((S)-3-amino-2-hydroxypropyl)-2-(3-aminopropyl)-1H-pyrazol-2-ium-4-yl)chroman-2-yl)-1-carboxyethoxy)imino)-2-(2-aminothiazol-4-yl)acetamido)-2,2-dimethyl-4-oxoazetidin-1-yl Sulfate] | 25 µM | 100 µM | 6.25 µM | 50 µM
2 | CC1(C)[C@H](NC(=O)/C(=N\O[C@](C)(C(=O)O)[C@H]2CCc3cc(C4CNC(NCCN)=N4)ccc3O2)c2csc(N)n2)C(=O)N1OS(=O)(=O)O (single isomer, unassigned) [Example 25] | 50 µM | 6.25 µM | 0.3906 µM | 3.125 µM
3 | CC1(C)[C@H](NC(=O)/C(=N\O[C@](C)(C(=O)O)[C@H]2CCc3cc(C4CNC(NCCN)=N4)ccc3O2)c2csc(N)n2)C(=O)N1OS(=O)(=O)O (single isomer, unassigned) [Example 26] | 12.5 µM | 100 µM | 1.563 µM | 50 µM
4 | C[n+]1cc(-c2ccc3c(c2)OCC(CO/N=C(\C(=O)N[C@@H]2C(=O)N(OS(=O)(=O)[O-])C2(C)C)c2csc(N)n2)C3)ccc1NCCN.O=C(O)C(F)(F)F (single isomer, unassigned) [Example 37A] | 12.5 µM | 12.5 µM | 0.78 µM | 3.13 µM
5 | C[n+]1cc(-c2ccc3c(c2)OCC(CO/N=C(\C(=O)N[C@@H]2C(=O)N(OS(=O)(=O)[O-])C2(C)C)c2csc(N)n2)C3)ccc1NCCN.O=C(O)C(F)(F)F (single isomer, unassigned) [Example 37B] | 50 µM | 100 µM | 6.25 µM | 25 µM
6 | CC1(C)[C@H](NC(=O)/C(=N\O[C@](C)(C(=O)O)[C@H]2CCc3cc(-c4cn(C[C@@H](O)CN)[n+](CC5CNC5)c4)ccc3O2)c2csc(N)n2)C(=O)N1OS(=O)(=O)[O-] [Example 4, (S)-3-((Z)-2-(((S)-1-((R)-6-(1-((S)-3-Amino-2-hydroxypropyl)-2-(azetidin-3-ylmethyl)-1H-pyrazol-2-ium-4-yl)chroman-2-yl)-1-carboxyethoxy)imino)-2-(2-aminothiazol-4-yl)acetamido)-2,2-dimethyl-4-oxoazetidin-1-yl Sulfate] | 6.25 µM | 12.5 µM | 1.281 µM | 25 µM
7 | C[n+]1cc(-c2ccc3c(c2)CC[C@H]([C@](C)(O/N=C(\C(=O)N[C@@H]2C(=O)N(OS(=O)(=O)[O-])C2(C)C)c2csc(N)n2)C(=O)O)O3)cn1CC1(N)CNC1 [Example 6, (S)-3-((Z)-2-(((S)-1-((R)-6-(1-((3-Aminoazetidin-3-yl)methyl)-2-methyl-1H-pyrazol-2-ium-4-yl)chroman-2-yl)-1-carboxyethoxy)imino)-2-(2-aminothiazol-4-yl)acetamido)-2,2-dimethyl-4-oxoazetidin-1-yl Sulfate] | 100 µM | 100 µM | 12.5 µM | 100 µM
8 | C[n+]1cc(-c2ccc3c(c2)CC[C@H]([C@](C)(O/N=C(\C(=O)N[C@@H]2C(=O)N(OS(=O)(=O)[O-])C2(C)C)c2csc(N)n2)C(=O)O)O3)cn1C[C@H](O)CN [Example 7, (S)-3-((Z)-2-(((S)-1-((R)-6-(1-((R)-3-amino-2-hydroxypropyl)-2-methyl-1H-pyrazol-2-ium-4-yl)chroman-2-yl)-1-carboxyethoxy)imino)-2-(2-aminothiazol-4-yl)acetamido)-2,2-dimethyl-4-oxoazetidin-1-yl sulfate] | 25 µM | 25 µM | 1.563 µM | 12.5 µM
9 | C[n+]1cc(-c2ccc3c(c2)CC[C@H]([C@](C)(O/N=C(\C(=O)N[C@@H]2C(=O)N(OS(=O)(=O)[O-])C2(C)C)c2csc(N)n2)C(=O)O)O3)cn1C[C@@H](O)CN [Example 8, (S)-3-((Z)-2-(((S)-1-((R)-6-(1-((S)-3-amino-2-hydroxypropyl)-2-methyl-1H-pyrazol-2-ium-4-yl)chroman-2-yl)-1-carboxyethoxy)imino)-2-(2-aminothiazol-4-yl)acetamido)-2,2-dimethyl-4-oxoazetidin-1-yl sulfate] | 100 µM | 100 µM | 3.125 µM | 25 µM
10 | CC1(C)[C@H](NC(=O)/C(=N\O[C@](C)(C(=O)O)[C@H]2CCc3cc(-c4cn(CCCN)c(=N)n4C[C@H](O)CO)ccc3O2)c2csc(N)n2)C(=O)N1OS(=O)(=O)O [Example 9, (S)-3-((Z)-2-(((S)-1-((R)-6-(1-(3-aminopropyl)-3-((S)-2,3-dihydroxypropyl)-2-imino-2,3-dihydro-1H-imidazol-4-yl)chroman-2-yl)-1-carboxyethoxy)imino)-2-(2-aminothiazol-4-yl)acetamido)-2,2-dimethyl-4-oxoazetidin-1-yl sulfate] | 12.5 µM | 12.5 µM | 0.3906 µM | 6.25 µM
11 | C[n+]1cc(-c2ccc3c(c2)CC[C@@H](CO/N=C(\C(=O)N[C@@H]2C(=O)N(OS(=O)(=O)[O-])C2(C)C)c2csc(N)n2)O3)cn1CCCN [Example 10, (S)-3-((Z)-2-((((S)-6-(1-(3-aminopropyl)-2-methyl-1H-pyrazol-2-ium-4-yl)chroman-2-yl)methoxy)imino)-2-(2-aminothiazol-4-yl)acetamido)-2,2-dimethyl-4-oxoazetidin-1-yl sulfate] | 12.5 µM | 6.25 µM | 0.3906 µM | 6.25 µM
12 | C[n+]1cc(-c2ccc3c(c2)CC[C@H](CO/N=C(\C(=O)N[C@@H]2C(=O)N(OS(=O)(=O)[O-])C2(C)C)c2csc(N)n2)O3)cn1CCCN [Example 11, (S)-3-((Z)-2-((((R)-6-(1-(3-aminopropyl)-2-methyl-1H-pyrazol-2-ium-4-yl)chroman-2-yl)methoxy)imino)-2-(2-aminothiazol-4-yl)acetamido)-2,2-dimethyl-4-oxoazetidin-1-yl sulfate] | 3.125 µM | 6.25 µM | 0.7813 µM | 3.125 µM
13 | CC1(C)[C@H](NC(=O)/C(=N\OCC2CCc3cc(C(=N)NCCN)ccc3O2)c2csc(N)n2)C(=O)N1OS(=O)(=O)O (stereo partly drawn) [Example 13, (3S)-3-((Z)-2-(((6-(N-(2-aminoethyl)carbamimidoyl)chroman-2-yl)methoxy)imino)-2-(2-aminothiazol-4-yl)acetamido)-2,2-dimethyl-4-oxoazetidin-1-yl hydrogen sulfate] | 25 µM | 12.5 µM | 0.7813 µM | 12.5 µM
14 | CC1(C)[C@H](NC(=O)/C(=N\O[C@](C)(C(=O)O)[C@H]2CCc3cc(-c4ccc(NCCN)[n+](CC5CNC5)c4)ccc3O2)c2csc(N)n2)C(=O)N1OS(=O)(=O)[O-].O=CO [Example 14, (S)-3-((Z)-2-(((S)-1-((R)-6-(6-((2-aminoethyl)amino)-1-(azetidin-1-ium-3-ylmethyl)pyridin-1-ium-3-yl)chroman-2-yl)-1-carboxyethoxy)imino)-2-(2-aminothiazol-4-yl)acetamido)-2,2-dimethyl-4-oxoazetidin-1-yl Sulfate Formate] | 50 µM | 12.5 µM | 0.7813 µM | 12.5 µM
15 | C[n+]1cc(-c2ccc3c(c2)CC[C@H]([C@](C)(O/N=C(\C(=O)N[C@@H]2C(=O)N(OS(=O)(=O)[O-])C2(C)C)c2csc(N)n2)C(=O)O)O3)cnc1N(CCN)CC1CNC1.O=CO [Example 15, (S)-3-((Z)-2-(((S)-1-((R)-6-(2-((2-aminoethyl)(azetidin-1-ium-3-ylmethyl)amino)-1-methylpyrimidin-1-ium-5-yl)chroman-2-yl)-1-carboxyethoxy)imino)-2-(2-aminothiazol-4-yl)acetamido)-2,2-dimethyl-4-oxoazetidin-1-yl sulfate formate] | 3.125 µM | 6.25 µM | 0.3906 µM | 6.25 µM
